System: HEK293 cells
Assay: Preliminary screening as mRNA vectors, EGFP mRNA transfection of HEK293 cells
Type: cell-based
Details: EGFP mRNA 50 ng per well, 96-well plates; percentage of GFP fluorescent cells relative to total number of cells (Hoechst)
In short: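 HEK293 cells in DMEM plus 10% FBS transfected in 96-well format with 50 ng EGFP mRNA per well; Lipofectamine2000 served as positive control. Read-out is the percentage of GFP-fluorescent cells among total cells, counted by Hoechst nuclear stain.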

CCCCCCCCCCCCCCCCCCSc1nc(NCC2CCN(C)CC2)nc(SCCCCCCC)n1 [Compound D10S7S18]
Absolute mRNA transfection efficiency in HEK293 cells: 90.5%

CCCCCCCCCCCCN(CCCCCCCCCCCC)c1nc(NCCN2CCCCC2)nc(SCCCCCC)n1 [D4S6^2N12]
Absolute mRNA transfection efficiency in HEK293 cells: 2.2%

CCCCCCCCCCCCCCCNc1nc(NCCN2CCCC2)nc(SCCCCCCCCCCCC)n1 [Compound D3S12N15]
Absolute mRNA transfection efficiency in HEK293 cells: 1.5%

CCCCCCCCCCCCCCCCCCSc1nc(NCCCCCCCCCCCCCCCC)nc(NCCCN2CCN(C)CC2)n1 [Compound D9S18N16]
Absolute mRNA transfection efficiency in HEK293 cells: 0.1%

CCCCCCCCCCCCCCCCSc1nc(NCCCCCCCCCCC)nc(NCCN2CCN(C)CC2)n1 [Compound D5S16N11]
Absolute mRNA transfection efficiency in HEK293 cells: 45.0%

CCCCCCNc1nc(NCCN2CCCCC2)nc(SCCCCCC)n1 [Compound D4S6N6]
Absolute mRNA transfection efficiency in HEK293 cells: 0.3%

CCCCCCCCCCCCCCCSc1nc(NCCCCCCCCCCCCC)nc(NCCCN(C)C)n1 [Compound D6S15N13]
Absolute mRNA transfection efficiency in HEK293 cells: 0.8%

CCCCCCCCCCCCCCCSc1nc(NCCCCCC)nc(NCCN2CCCC2)n1 [Compound D3S15N6]
Absolute mRNA transfection efficiency in HEK293 cells: 33.2%

CCCCCCCCSc1nc(NCCCCCC)nc(NCCN2CCOCC2)n1 [Compound D2S8N6]
Absolute mRNA transfection efficiency in HEK293 cells: 0.7%

CCCCCCCSc1nc(NCCN2CCN(C)CC2)nc(SCCCCCCC)n1 [Compound D5S7S7]
Absolute mRNA transfection efficiency in HEK293 cells: 10.5%

CCCCCCCCCCCCCCCCNc1nc(NCCCN2CCN(C)CC2)nc(SCCCCCCCCCC)n1 [Compound D9S10N16]
Absolute mRNA transfection efficiency in HEK293 cells: 13.6%

CCCCCCCCCCCCSc1nc(NCCCN2CCOCC2)nc(SCCCCCC)n1 [Compound D8S6S12]
Absolute mRNA transfection efficiency in HEK293 cells: 11.1%

CCCCCCCCCCCCSc1nc(NCCN2CCCCC2)nc(SCCCCCC)n1 [Compound D4S6S12]
Absolute mRNA transfection efficiency in HEK293 cells: 0.2%

CCCCCCCCCCCCCCCCNc1nc(NCC2CCN(C)CC2)nc(SCCCCCCC)n1 [Compound D10S7N16]
Absolute mRNA transfection efficiency in HEK293 cells: 44.3%

CCCCCCCCCCCCCCSc1nc(NCCCCCCCCCCC)nc(NCCCN2CCOCC2)n1 [Compound D8S14N11]
Absolute mRNA transfection efficiency in HEK293 cells: 2.0%

CCCCCCCCCCCCNc1nc(NCCN2CCCC2)nc(SCCCCCCC)n1 [Compound D3S7N12]
Absolute mRNA transfection efficiency in HEK293 cells: 6.5%

CCCCCCCCCCCCNc1nc(NCCN2CCOCC2)nc(SCCCCCC)n1 [Compound D2S6N12]
Absolute mRNA transfection efficiency in HEK293 cells: 0.8%

CCCCCCCCCCCCCCCCCCSc1nc(NCCN2CCCCC2)nc(N(CCCCCCCCCCCC)CCCCCCCCCCCC)n1 [D4S18^2N12]
Absolute mRNA transfection efficiency in HEK293 cells: 0.3%

CCCCCCCSc1nc(NCCN2CCCC2)nc(SCCCCCC)n1 [Compound D3S6S7]
Absolute mRNA transfection efficiency in HEK293 cells: 1.3%

CCCCCCNc1nc(NCCCN(C)C)nc(SCCCCCC)n1 [Compound D6S6N6]
Absolute mRNA transfection efficiency in HEK293 cells: 0.0%

CCCCCCCCCCSc1nc(NCCN2CCN(C)CC2)nc(SCCCCCCC)n1 [Compound D5S7S10]
Absolute mRNA transfection efficiency in HEK293 cells: 12.2%

CCCCCCCCCCCCCCCCCCNc1nc(NCCN2CCN(C)CC2)nc(SCCCCCCCC)n1 [Compound D5S8N18]
Absolute mRNA transfection efficiency in HEK293 cells: 29.9%

CCCCCCCCCCCCCCCCSc1nc(NCCCCCCCCCCCCC)nc(NCCCN(C)C)n1 [Compound D6S16N13]
Absolute mRNA transfection efficiency in HEK293 cells: 0.5%

CCCCCCCCCCCCCCCSc1nc(NCCN(CC)CC)nc(N(CCCCCCCCCCCC)CCCCCCCCCCCC)n1 [D7S15^2N12]
Absolute mRNA transfection efficiency in HEK293 cells: 1.8%

CCCCCCCCCCCCCCCCNc1nc(NCCN(C)C)nc(SCCCCCCCCC)n1 [Compound D1S9N16]
Absolute mRNA transfection efficiency in HEK293 cells: 25.6%

CCCCCCCCCCCNc1nc(NCCN2CCOCC2)nc(SCCCCCCCCCC)n1 [Compound D2S10N11]
Absolute mRNA transfection efficiency in HEK293 cells: 0.2%

CCCCCCCCCCCCCCCCSc1nc(NCCCCCCCCC)nc(NCCN(CC)CC)n1 [Compound D7S16N9]
Absolute mRNA transfection efficiency in HEK293 cells: 9.0%

CCCCCCCCCNc1nc(NCCCN2CCOCC2)nc(SCCCCCC)n1 [Compound D8S6N9]
Absolute mRNA transfection efficiency in HEK293 cells: 1.2%

CCCCCCCCCCCCCCCSc1nc(NCCN(CC)CC)nc(SCCCCCC)n1 [Compound D7S6S15]
Absolute mRNA transfection efficiency in HEK293 cells: 1.3%

CCCCCCCCCCCCCNc1nc(NCCCN(C)C)nc(SCCCCCCCCCCC)n1 [Compound D6S11N13]
Absolute mRNA transfection efficiency in HEK293 cells: 10.0%

CCCCCCCCCCCCCCCCNc1nc(NCCN(C)C)nc(SCCCCCCCCCCC)n1 [Compound D1S11N16]
Absolute mRNA transfection efficiency in HEK293 cells: 13.0%

CCCCCCCCCCCCSc1nc(NCC2CCN(C)CC2)nc(N(CCCCCCCCCCCC)CCCCCCCCCCCC)n1 [D10S12^2N12]
Absolute mRNA transfection efficiency in HEK293 cells: 3.4%

CCCCCCCCCCCCSc1nc(NCCN2CCCC2)nc(SCCCCCCC)n1 [Compound D3S7S12]
Absolute mRNA transfection efficiency in HEK293 cells: 5.4%

CCCCCCCCCCCCSc1nc(NCCCCCC)nc(NCCCN2CCOCC2)n1 [Compound D8S12N6]
Absolute mRNA transfection efficiency in HEK293 cells: 0.9%

CCCCCCCCCCCCCCCCNc1nc(NCCN2CCOCC2)nc(SCCCCCCCCCCCC)n1 [Compound D2S12N16]
Absolute mRNA transfection efficiency in HEK293 cells: 0.8%

CCCCCCCCNc1nc(NCC2CCN(C)CC2)nc(SCCCCCC)n1 [Compound D10S6N8]
Absolute mRNA transfection efficiency in HEK293 cells: 1.4%

CCCCCCCCCCCCCCCCCCNc1nc(NCCN(C)C)nc(SCCCCCCCCCCC)n1 [Compound D1S11N18]
Absolute mRNA transfection efficiency in HEK293 cells: 15.4%

CCCCCCCCCCCNc1nc(NCCCN(C)C)nc(SCCCCCCCC)n1 [Compound D6S8N11]
Absolute mRNA transfection efficiency in HEK293 cells: 32.3%

CCCCCCCCCCCCCCCSc1nc(NCCCCCCCCC)nc(NCCCN2CCN(C)CC2)n1 [Compound D9S15N9]
Absolute mRNA transfection efficiency in HEK293 cells: 18.5%

CCCCCCCCCCCCCCCNc1nc(NCCCN2CCOCC2)nc(SCCCCCCCCC)n1 [Compound D8S9N15]
Absolute mRNA transfection efficiency in HEK293 cells: 7.2%

CCCCCCCCCCCCCCCNc1nc(NCCN2CCN(C)CC2)nc(SCCCCCCCCCCC)n1 [Compound D5S11N15]
Absolute mRNA transfection efficiency in HEK293 cells: 20.4%

CCCCCCCCCSc1nc(NCCCCCC)nc(NCCCN(C)C)n1 [Compound D6S9N6]
Absolute mRNA transfection efficiency in HEK293 cells: 1.4%

CCCCCCCCCCCCCCCNc1nc(NCCN2CCOCC2)nc(SCCCCCCCCCCC)n1 [Compound D2S11N15]
Absolute mRNA transfection efficiency in HEK293 cells: 2.8%

CCCCCCCCCNc1nc(NCCN2CCN(C)CC2)nc(SCCCCCCC)n1 [Compound D5S7N9]
Absolute mRNA transfection efficiency in HEK293 cells: 3.1%

CCCCCCCCCCCCCCCSc1nc(NCCCN2CCN(C)CC2)nc(SCCCCCCC)n1 [Compound D9S7S15]
Absolute mRNA transfection efficiency in HEK293 cells: 9.6%

CCCCCCCCCCCCNc1nc(NCCCN2CCN(C)CC2)nc(SCCCCCCC)n1 [Compound D9S7N12]
Absolute mRNA transfection efficiency in HEK293 cells: 62.7%

CCCCCCCCCCCCCCCCCCSc1nc(NCCCCCCCCCCCCC)nc(NCCN(CC)CC)n1 [Compound D7S18N13]
Absolute mRNA transfection efficiency in HEK293 cells: 1.5%

CCCCCCCCCCCSc1nc(NCCCN(C)C)nc(SCCCCCCC)n1 [Compound D6S7S11]
Absolute mRNA transfection efficiency in HEK293 cells: 68.6%

CCCCCCCCCCCCSc1nc(NCCCCCCCCC)nc(NCCCN2CCOCC2)n1 [Compound D8S12N9]
Absolute mRNA transfection efficiency in HEK293 cells: 2.3%

CCCCCCCCCCCCCCCSc1nc(NCCCCCCCCC)nc(NCCN2CCCC2)n1 [Compound D3S15N9]
Absolute mRNA transfection efficiency in HEK293 cells: 15.4%

CCCCCCCCCCCCCCSc1nc(NCCCCCCCCCCCCC)nc(NCCN2CCCC2)n1 [Compound D3S14N13]
Absolute mRNA transfection efficiency in HEK293 cells: 25.9%

CCCCCCCCCCCCCCSc1nc(NCCCCCCC)nc(NCCCN2CCOCC2)n1 [Compound D8S14N7]
Absolute mRNA transfection efficiency in HEK293 cells: 3.1%

CCCCCCCCCCCCCCCNc1nc(NCCN2CCCCC2)nc(SCCCCCCCCCCCCCCC)n1 [Compound D4S15N15]
Absolute mRNA transfection efficiency in HEK293 cells: 3.5%

CCCCCCCSc1nc(NCCCCCC)nc(NCCN(C)C)n1 [Compound D1S7N6]
Absolute mRNA transfection efficiency in HEK293 cells: 5.1%

CCCCCCCCCCCCN(CCCCCCCCCCCC)c1nc(NCCCN2CCOCC2)nc(SCCCCCC)n1 [D8S6^2N12]
Absolute mRNA transfection efficiency in HEK293 cells: 0.0%

CCCCCCCCCCCCSc1nc(NCCCN(C)C)nc(N(CCCCCCCCCCCC)CCCCCCCCCCCC)n1 [D6S12^2N12]
Absolute mRNA transfection efficiency in HEK293 cells: 2.4%

CCCCCCCCCCCCCCCSc1nc(NCCCCCCC)nc(NCCN(CC)CC)n1 [Compound D7S15N7]
Absolute mRNA transfection efficiency in HEK293 cells: 27.8%

CCCCCCCCCCSc1nc(NCCN2CCOCC2)nc(SCCCCCCC)n1 [Compound D2S7S10]
Absolute mRNA transfection efficiency in HEK293 cells: 32.4%

CCCCCCCCCCCCSc1nc(NCCCCCCC)nc(NCCN2CCOCC2)n1 [Compound D2S12N7]
Absolute mRNA transfection efficiency in HEK293 cells: 0.4%

CCCCCCCCCCCCCCCCNc1nc(NCCCN2CCOCC2)nc(SCCCCCCCCCCCC)n1 [Compound D8S12N16]
Absolute mRNA transfection efficiency in HEK293 cells: 0.7%

CCCCCCCCCCCCCCSc1nc(NCCN(C)C)nc(N(CCCCCCCCCCCC)CCCCCCCCCCCC)n1 [D1S14^2N12]
Absolute mRNA transfection efficiency in HEK293 cells: 0.1%

CCCCCCCCCCCSc1nc(NCCCCCCC)nc(NCC2CCN(C)CC2)n1 [Compound D10S11N7]
Absolute mRNA transfection efficiency in HEK293 cells: 18.2%

CCCCCCCCCCCCCCCCCCNc1nc(NCCN(C)C)nc(SCCCCCCCCCCCCCCC)n1 [Compound D1S15N18]
Absolute mRNA transfection efficiency in HEK293 cells: 3.8%

CCCCCCCCSc1nc(NCCN2CCCCC2)nc(SCCCCCC)n1 [Compound D4S6S8]
Absolute mRNA transfection efficiency in HEK293 cells: 0.5%

CCCCCCCCCCCCCCCCNc1nc(NCCCN(C)C)nc(SCCCCCCCCC)n1 [Compound D6S9N16]
Absolute mRNA transfection efficiency in HEK293 cells: 46.2%

CCCCCCCCCCCCSc1nc(NCCCN(C)C)nc(SCCCCCCC)n1 [Compound D6S7S12]
Absolute mRNA transfection efficiency in HEK293 cells: 93.8%

CCCCCCCCCCCCN(CCCCCCCCCCCC)c1nc(NCCN2CCOCC2)nc(SCCCCCCC)n1 [D2S7^2N12]
Absolute mRNA transfection efficiency in HEK293 cells: 0.4%

Reference: patent publication US20230123334A1, “AMINO LIPID COMPOUND, PREPARATION METHOD THEREFOR, AND APPLICATION THEREOF” (SHENZHEN SHENXIN BIOTECHNOLOGY CO., LTD., priority 2020, published 2023)
